Source: ChEMBL document CHEMBL1150231, “New sesquiterpene carbonimidic dichlorides and related compounds from the sponge Stylotella aurantium” (J Nat Prod, 2001)

What was measured:
Format in all cases: functional, cell-based
[1] = tested on: A549; experiment: Cytotoxicity against human A549 cells
[2] = tested on: HT-29; experiment: Cytotoxicity against human HT-29 cells
[3] = tested on: SK-MEL-28; experiment: Cytotoxicity against human SK-MEL-28 cells
[4] = tested on: P388; experiment: Cytotoxicity against mouse P388 cells

Measured: IC50

C=C(CC[C@@H]1C(=C)CC[C@H](Cl)C1(C)C)C(Cl)CN=C(Cl)Cl (some centres not stated)
0.1 µg/mL: [1] | [2] | [3] | [4]

CC1(C)[C@@H](Cl)[C@@H](O)C[C@]2(C)C/C(=C\C=O)CC[C@@H]12
0.1 µg/mL: [1] | [2] | [3] | [4]

CC1(C)[C@@H](Cl)[C@@H](O)C[C@]2(C)C/C(=C/C=O)CC[C@@H]12
0.1 µg/mL: [1] | [2] | [3] | [4]
